# Assay results taken from patent publication US7348425B2, “Inhibitors of HCV replication” (Bristol-Myers Squibb Company, priority 2004, dated 2008).
# Experiments:
# [1] = target: T1, HCV NS5B RdRp genotype 1b (Hepatitis C virus genotype 1b, UniProt Q9WMX2); assay: Modified HCV NS5B RdRp enzyme assay (with preincubation); format: biochemical
# T1 construct: The protein was expressed with an 18 amino acid C-terminal truncation to enhance the solubility; made in house; host or cells: E. coli BL21 (DE3), pET21a
# T1 sequence (Q9WMX2 2420-2992): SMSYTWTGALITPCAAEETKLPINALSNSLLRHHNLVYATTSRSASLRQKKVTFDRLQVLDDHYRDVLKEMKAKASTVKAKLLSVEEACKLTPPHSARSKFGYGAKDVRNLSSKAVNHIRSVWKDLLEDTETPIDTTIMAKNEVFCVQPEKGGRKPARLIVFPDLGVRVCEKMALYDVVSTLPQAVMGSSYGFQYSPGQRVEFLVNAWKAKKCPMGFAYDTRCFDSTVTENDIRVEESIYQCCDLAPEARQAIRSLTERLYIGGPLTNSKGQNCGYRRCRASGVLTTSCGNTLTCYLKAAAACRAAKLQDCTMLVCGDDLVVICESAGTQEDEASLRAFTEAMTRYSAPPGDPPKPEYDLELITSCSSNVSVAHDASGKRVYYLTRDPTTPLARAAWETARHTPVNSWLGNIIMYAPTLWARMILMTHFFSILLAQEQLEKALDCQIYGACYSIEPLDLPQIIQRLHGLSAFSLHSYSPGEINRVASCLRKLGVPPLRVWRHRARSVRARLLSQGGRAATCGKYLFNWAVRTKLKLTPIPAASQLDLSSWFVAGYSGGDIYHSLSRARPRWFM
# In short: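 Seven-point IC50s were derived from SPA-based ³H-UTP incorporation after 4 h at 30 °C (Hepes pH 7.5, 2% DMSO). Compound was first mixed with 14 nM Δ18 NS5B genotype 1b enzyme. Then 0.2 nM polyA, 0.29 μM UTP and bead-bound oligo-dT12 (20 nM) were added.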
# HCV replicon = HCV replicon FRET assay; format: cell-based; conditions: Hepatitis C virus; FRET assay; read-out: EC50
# In short: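 Replicon cells (± Renilla luciferase reporter) incubated with titrated compound at 37 °C; NS3 protease activity read by FRET peptide cleavage (20 uM EDANS/DABCYL substrate, 340/490 nm kinetic) or luciferase.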
# [2] = modified method (with preincubation)
SMILES,"IC50 [1, 2]",EC50 (HCV replicon),IC50 ([1]; preincubation protocol)
O=C(O)/C=C/c1ccc(NC(=O)C2(NC(=O)c3ccc4c(C5CCCCC5)c5n(c4c3)CCCc3cc(O)ccc3-5)CCCC2)cc1,20 to 1000 nM,10 to 1000 nM,–
O=C1Cn2c(c(C3CCCCC3)c3ccc(C(=O)NC4(C(=O)Nc5ncc(-c6ccc(C(=O)O)cc6)s5)CCCC4)cc32)-c2ccccc2N1,20 to 1000 nM,10 to 1000 nM,–
O=C1Cn2c(c(C3CCCCC3)c3ccc(C(=O)NC4(C(=O)Nc5nccs5)CCCC4)cc32)-c2ccccc2N1,20 to 1000 nM,10 to 1000 nM,–
CN(C)CCNC(=O)C1=Cc2ccccc2-c2c(C3CCCCC3)c3ccc(C(=O)O)cc3n2C1,20 to 1000 nM,10 to 1000 nM,–
O=C(O)/C=C/c1ccc(NC(=O)C2(NC(=O)c3ccc4c(C5CCCCC5)c5n(c4c3)CCCc3nccnc3-5)CCCC2)cc1,20 to 1000 nM,< 100 nM,–
CN(C)CCNC(=O)C1=Cc2ccccc2-c2c(C3CCCCC3)c3ccc(C(=O)NC4(C(=O)Nc5ccc(/C=C/C(=O)O)cc5)CCCC4)cc3n2C1,20 to 1000 nM,10 to 1000 nM,–
CCOC(=O)c1cc2cc(NC(=O)C3(NC(=O)c4ccc5c(C6CCCCC6)c6n(c5c4)CC(=O)Nc4ccccc4-6)CCCC3)ccc2n1C,20 to 1000 nM,10 to 1000 nM,–
CCOC(=O)N1CCn2c(c(C3CCCCC3)c3ccc(C(=O)NS(=O)(=O)C4CC4)cc32)-c2ccccc21,20 to 1000 nM,10 to 1000 nM,–
O=C(NS(=O)(=O)C1CC1)c1ccc2c(C3CCCCC3)c3n(c2c1)CCNc1ccccc1-3,20 to 1000 nM,10 to 1000 nM,–
CS(=O)(=O)NC(=O)c1ccc2c(C3CCCCC3)c3n(c2c1)CCNc1ccccc1-3,20 to 1000 nM,10 to 1000 nM,–
CC(C)(C)OC(=O)N1CCn2c(c(C3CCCCC3)c3ccc(C(=O)NS(C)(=O)=O)cc32)-c2ccccc21,20 to 1000 nM,10 to 1000 nM,–
COc1ccc2c(c1)C=C(C(=O)N1CCOCC1)Cn1c-2c(C2CCCCC2)c2ccc(C(=O)NS(=O)(=O)C3CC3)cc21,–,50 to 1000 nM,10 to 1000 nM
COc1ccc2c(c1)CC(F)(C(=O)O)Cn1c-2c(C2CCCCC2)c2ccc(C(=O)NS(=O)(=O)N(C)C)cc21 (centres unmarked),–,1000 to 10000 nM,10 to 1000 nM
COc1ccc2c(c1)CC(F)(C(=O)N1C[C@@H](C)O[C@@H](C)C1)Cn1c-2c(C2CCCCC2)c2ccc(C(=O)NS(=O)(=O)N(C)C)cc21 (some centres unmarked),–,50 to 1000 nM,10 to 1000 nM
CN(C)S(=O)(=O)NC(=O)c1ccc2c(C3CCCCC3)c3n(c2c1)CCCN(C(=O)OC(C)(C)C)c1ccccc1-3,–,50 to 1000 nM,10 to 1000 nM
CN(C)S(=O)(=O)NC(=O)c1ccc2c(C3CCCCC3)c3n(c2c1)CCCNc1ccccc1-3,–,50 to 1000 nM,10 to 1000 nM
COc1ccc2c(c1)C=C(C(=O)N1CC(C)NC(C)C1)Cn1c-2c(C2CCCCC2)c2ccc(C(=O)NS(=O)(=O)N(C)C)cc21 (centres unmarked),–,50 to 1000 nM,10 to 1000 nM
COc1ccc2c(c1)C=C(C(=O)N1CC[C@@H](O)C1)Cn1c-2c(C2CCCCC2)c2ccc(C(=O)NS(=O)(=O)N(C)C)cc21,–,50 to 1000 nM,10 to 1000 nM
COc1ccc2c(c1)C=C(C(=O)N1CCC[C@H](O)C1)Cn1c-2c(C2CCCCC2)c2ccc(C(=O)NS(=O)(=O)N(C)C)cc21,–,50 to 1000 nM,10 to 1000 nM
O=C(O)c1ccc2c(C3CCCCC3)c3n(c2c1)C(C(=O)N1CCOCC1)CNc1ccccc1-3 (centres unmarked),–,1000 to 10000 nM,> 1000 nM
COC(=O)c1ccc2c(C3CCCCC3)c3n(c2c1)CC(CO)=Cc1ccccc1-3,–,50 to 1000 nM,> 1000 nM
COc1ccc2c(c1)C=C(C(=O)N1[C@H](C)CC[C@H]1C)Cn1c-2c(C2CCCCC2)c2ccc(C(=O)NS(=O)(=O)N(C)C)cc21,–,50 to 1000 nM,10 to 1000 nM
CCN(C)C(=O)C1=Cc2cc(OC)ccc2-c2c(C3CCCCC3)c3ccc(C(=O)NS(=O)(=O)N(C)C)cc3n2C1,–,50 to 1000 nM,10 to 1000 nM
C[C@@H]1CN(C(=O)C2=Cc3ccccc3-c3c(C4CCCCC4)c4ccc(C(=O)NC5(C(=O)Nc6ccc(-c7cnco7)cc6)CCCC5)cc4n3C2)C[C@H](C)O1,–,50 to 1000 nM,10 to 1000 nM
C[C@@H]1CN(C(=O)C2=Cc3ccccc3-c3c(C4CCCCC4)c4ccc(C(=O)NC5(C(=O)Nc6ccc(-n7cncn7)cc6)CCCC5)cc4n3C2)C[C@H](C)O1,–,50 to 1000 nM,10 to 1000 nM

SMILES,"IC50 [1, 2]",EC50 (HCV replicon),IC50 ([1]; preincubation protocol)
Cc1cc(CNC(=O)c2ccc3c(C4CCCCC4)c4n(c3c2)CC(C(=O)N2C[C@@H](C)O[C@@H](C)C2)=Cc2ccccc2-4)n[nH]1,–,50 to 1000 nM,10 to 1000 nM
COc1ccc2c(c1)C=C(C(=O)N1CCOC(CN(C)C)C1)Cn1c-2c(C2CCCCC2)c2ccc(C(=O)NS(=O)(=O)N(C)C)cc21 (centres unmarked),–,50 to 1000 nM,10 to 1000 nM
COc1ccc2c(c1)C=C(C(=O)N1CCC(O)CC1)Cn1c-2c(C2CCCCC2)c2ccc(C(=O)NS(=O)(=O)N(C)C)cc21,–,50 to 1000 nM,10 to 1000 nM
COc1ccc2c(c1)C(=O)n1c-2c(C2CCCCC2)c2ccc(C(=O)NS(=O)(=O)N(C)C)cc21,–,1000 to 10000 nM,10 to 1000 nM
COC(=O)c1ccc2c(C3CCCCC3)c3n(c2c1)CC(C(=O)N1C[C@@H](C)O[C@@H](C)C1)=Cc1cc(F)ccc1-3,–,1000 to 10000 nM,> 1000 nM
C[C@@H]1CN(C(=O)C2=Cc3cc(F)ccc3-c3c(C4CCCCC4)c4ccc(C(=O)O)cc4n3C2)C[C@H](C)O1,–,50 to 1000 nM,10 to 1000 nM
C[C@@H]1CN(C(=O)C2=Cc3cc(F)ccc3-c3c(C4CCCCC4)c4ccc(C(=O)NS(=O)(=O)N(C)C)cc4n3C2)C[C@H](C)O1,–,50 to 1000 nM,10 to 1000 nM
COC(=O)c1ccc2c(C3CCCCC3)c3n(c2c1)CC(C(=O)N1C[C@@H](C)N[C@@H](C)C1)=Cc1cc(F)ccc1-3,–,1000 to 10000 nM,10 to 1000 nM
C[C@@H]1CN(C(=O)C2=Cc3cc(F)ccc3-c3c(C4CCCCC4)c4ccc(C(=O)O)cc4n3C2)C[C@H](C)N1,–,50 to 1000 nM,10 to 1000 nM
COC(=O)c1ccc2c(C3CCCCC3)c3n(c2c1)C(C(=O)N1CCOCC1)CCc1ccccc1-3 (centres unmarked),–,50 to 1000 nM,> 12500 nM
C[C@@H]1CN(C(=O)C2=Cc3ccccc3-c3c(C4CCCCC4)c4ccc(C(=O)NC5(C(=O)Nc6ncc(-c7ccc(C(=O)O)cc7)s6)CCCC5)cc4n3C2)C[C@H](C)O1,–,50 to 1000 nM,10 to 1000 nM
C[C@@H]1CN(C(=O)C2=Cc3ccccc3-c3c(C4CCCCC4)c4ccc(C(=O)NC5(C(=O)Nc6nccs6)CCCC5)cc4n3C2)C[C@H](C)O1,–,50 to 1000 nM,10 to 1000 nM
O=C(O)c1ccc2c(C3CCCCC3)c3n(c2c1)C(C(=O)N1CCOCC1)CCc1ccccc1-3 (centres unmarked),–,> 3300 nM,> 12500 nM
COc1ccc2c(c1)C=C(C(=O)N(C)CCO)Cn1c-2c(C2CCCCC2)c2ccc(C(=O)NS(=O)(=O)N(C)C)cc21,–,50 to 1000 nM,< 20 nM
COc1ccc2c(c1)C=C(C(=O)N(CCO)CCO)Cn1c-2c(C2CCCCC2)c2ccc(C(=O)NS(=O)(=O)N(C)C)cc21,–,50 to 1000 nM,< 20 nM
C[C@@H]1CN(C(=O)C2=Cc3ccccc3-c3c(C4CCCCC4)c4ccc(C(=O)NC5(C(=O)O)CCCC5)cc4n3C2)C[C@H](C)O1,–,50 to 1000 nM,10 to 1000 nM
COc1ccc2c(c1)CC(C(=O)N1C[C@@H](C)N[C@@H](C)C1)Cn1c-2c(C2CCCCC2)c2ccc(C(=O)NS(=O)(=O)N(C)C)cc21 (some centres unmarked),–,50 to 1000 nM,10 to 1000 nM
C[C@@H]1CN(C(=O)C2=Cc3cc(F)ccc3-c3c(C4CCCCC4)c4ccc(C(=O)NS(=O)(=O)N(C)C)cc4n3C2)C[C@H](C)N1,–,50 to 1000 nM,10 to 1000 nM
COc1ccc2c(c1)CC(C(=O)N(CCO)CCO)Cn1c-2c(C2CCCCC2)c2ccc(C(=O)NS(=O)(=O)N(C)C)cc21 (centres unmarked),–,50 to 1000 nM,10 to 1000 nM
COc1ccc2c(c1)CC(C(=O)N(C)CCO)Cn1c-2c(C2CCCCC2)c2ccc(C(=O)NS(=O)(=O)N(C)C)cc21 (centres unmarked),–,50 to 1000 nM,10 to 1000 nM
CNS(=O)(=O)NC(=O)c1ccc2c(C3CCCCC3)c3n(c2c1)CC(C(=O)N1C[C@@H](C)O[C@@H](C)C1)=Cc1cc(F)ccc1-3,–,50 to 1000 nM,10 to 1000 nM
CNCCNC(=O)c1ccc2c(C3CCCCC3)c3n(c2c1)CC(C(=O)N1C[C@@H](C)O[C@@H](C)C1)=Cc1ccccc1-3,–,50 to 1000 nM,10 to 1000 nM
COc1ccc2c(c1O)C(O)n1c-2c(C2CCCCC2)c2ccc(C(=O)NS(=O)(=O)N(C)C)cc21 (centres unmarked),–,> 100 nM,1000 to 10000 nM
COc1cc2c(cn1)-c1c(C3CCCCC3)c3ccc(C(=O)NS(=O)(=O)N(C)C)cc3n1CC(C(=O)N1C[C@@H](C)O[C@@H](C)C1)=C2,–,> 1000 nM,1000 to 10000 nM
